Laboratory results published in PubChem BioAssay (NCI).
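96-well plates; 48 h exposure; 5 concentrations. Endpoints by linear interpolation between flanking doses. Not reached: highest tested concentration assigned. TGI: concentration producing complete growth inhibition.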

How the values were obtained:
Assay in all cases: NCI anticancer screen, dose series, 48 h
RPMI-8226 leukemia = system: RPMI-8226 leukemia
HCT-15 colon = system: HCT-15 colon
NCI/ADR-RES ovarian = system: NCI/ADR-RES ovarian
CAKI-1 renal = system: CAKI-1 renal
HS 578T breast = system: HS 578T breast
HCC-2998 colon = system: HCC-2998 colon
NCI-H460 lung = system: NCI-H460 lung
NCI-H226 lung = system: NCI-H226 lung
MCF7 breast = system: MCF7 breast
K-562 leukemia = system: K-562 leukemia

| SMILES | TGI (RPMI-8226 leukemia) [µM] | TGI (HCT-15 colon) [µM] | TGI (NCI/ADR-RES ovarian) [µM] | TGI (CAKI-1 renal) [µM] | TGI (HS 578T breast) [µM] | TGI (HCC-2998 colon) [µM] | TGI (NCI-H460 lung) [µM] | TGI (NCI-H226 lung) [µM] | TGI (MCF7 breast) [µM] | TGI (K-562 leukemia) [µM] |
| --- | --- | --- | --- | --- | --- | --- | --- | --- | --- | --- |
| CCCCCCCCCN1CCC(=O)C(C(=O)OC)C1 (configuration not stated) | 49.1 | 26.9 | 26.8 | 29.2 | 36.6 | 33.8 | 32.9 | 27.5 | 24.9 |  |
| CCOC(=O)c1nc2cc(C(F)(F)F)ccc2nc1Nc1ccc(Cl)c(Cl)c1 | > 100 | > 100 | > 100 | > 100 | > 100 | > 100 | > 100 | > 100 | > 100 |  |
| Fc1ccc(C(OCCN2CCC3CCC(C2)N3Cc2cc3ccccc3[nH]2)c2ccc(F)cc2)cc1 (configuration not stated) | 3.42 | 2.38 | 3.1 | 5.69 | 4 | 3.06 | 3.67 | 3.41 | 3.57 |  |
| Clc1nc2c(-c3cccs3)ncnc2n1Cc1ccccc1 | 70.6 | > 100 | > 100 | > 21 | 87.8 | 9.84 | > 83.2 | > 100 | > 100 | > 100 |
| C[C@@H]1C(O)CC[C@H](C)C12CC=CC2=O (some centres not stated) | > 100 | > 100 | > 100 | > 100 | > 100 | > 100 | > 100 | > 100 | > 100 | > 100 |
| CC(C)(C)OC(=O)NC(Cc1ccc([N+](=O)[O-])cc1)C(=O)NC(CCCCNC(=O)OCc1ccccc1)C(=O)ON1C(=O)CCC1=O (configuration not stated) | > 100 | > 100 | > 100 | > 100 | > 100 | 79.4 | > 100 | > 100 | > 100 | 73.1 |
| CSc1c(C#N)c2n(c3ccccc3[n+]2C)c2ncccc12 | > 100 | > 100 | 85.5 | > 100 | > 100 | > 100 | > 100 | 49.9 | 42.8 | > 100 |
| CN1C[C@@H]2CCCN2P1Oc1cccc2cccnc12 (some centres not stated) | 66.2 | > 100 | 62.3 | > 100 | 68.1 | > 100 | > 100 | > 100 | 65.4 | > 100 |
| CN(/N=C\c1ccc2ccccc2c1)C1=NCCCCN1 | 56.9 | > 100 | > 100 | 29.9 | 62.3 | 28.5 | 39.7 | > 100 | 48.9 | 42.5 |
| C=C(Cl)C(Cl)(CBr)CCC(Cl)C(C)(C)Cl (configuration not stated) | 0.872 | 14.7 | 11.8 | 2.48 | 0.284 | 16.4 | 2.83 | 61 | 3.56 | 29.3 |
| CCCCCCCSCC(O)COC(c1ccccc1)(c1ccccc1)c1ccccc1 (configuration not stated) | 87.3 | > 100 | > 100 | > 100 | 50.1 | > 100 | > 100 | 85 | > 100 | > 100 |
| O=C(NC(Nc1ccc(F)c(Cl)c1)(C(F)(F)F)C(F)(F)F)C(C(F)(F)F)C(F)(F)F | 66.8 | > 100 | 63.4 | > 100 | 64.7 | > 100 | > 100 | 64.7 | > 100 | 77.1 |
| O=C(/C=C/c1ccc(O)c(O)c1)OCCOC(=O)/C=C/c1ccc(O)c(O)c1 | > 100 | > 100 | > 100 | > 100 | > 100 | > 100 | > 100 | 96.3 | 90.9 | 63.2 |
| CC1=C(C(=O)OC(C)C)C(c2ccccc2[N+](=O)[O-])C(C(=O)OC(CO[N+](=O)[O-])CO[N+](=O)[O-])=C(C)N1 (configuration not stated) | > 100 | 16.2 | 12.2 | 19.3 | 25.8 | 43 | 16 | 28.5 | 27.9 | 71.6 |
| O=C1c2cc(CCl)sc2C(=O)c2ccsc21 | 0.558 | 1.48 | 0.468 | 3.09 | 0.498 | 3.04 | 2.63 | 3.1 | 0.406 | 0.478 |
| NC(=O)N(O)c1cccc(Br)c1 | > 100 | > 100 | > 100 | > 100 | > 100 | > 100 | > 100 | > 100 | > 100 | > 100 |
